Laboratory results as given in US20210316003A1 (Immunomedics, Inc., priority 2020, published 2021).
Where “and” joins values, the source holds several entries; their conditions need not be identical. Identical values can stand only once. Entries after “also recorded” stand apart in the source; their conditions may differ.

Assays:
[1] = tested on: patients with metastatic urothelial cancer (mUC); assay: Phase I/II trial IMMU-132-01 (NCT01631552), mUC cohort: efficacy by RECIST 1.1; type: in vivo, human; details: for ORR (objective response rate): 10 mg/kg days 1 and 8 of 21-day cycles
Experimental: Endpoints included safety, investigator-evaluated objective response rate (ORR per RECIST 1.1), clinical benefit rate, duration of response (DOR), progression-free survival (PFS), and overall survival (OS). Sequencing analysis of differentially mutated and expressed genes and pathways was performed in subsets of tumors from responders and non-responders.
All patients had metastatic disease measurable by Response Evaluation Criteria in Solid Tumors, version 1.1 (RECIST 1.1) at the time of enrollment. Patients were required to have an Eastern Cooperative Oncology Group (ECOG) performance status of 0 to 1 with expected survival ≥6 months and adequate hepatic, renal, and hematologic function. […] Patients with stable brain metastases could be included only if they were ≥2 weeks beyond high-dose steroid treatment. Pre-selection of patients based on tumor Trop-2 expression was not required.
Hematopoietic growth factors or blood transfusions were allowed at the investigator's discretion, but not prior to the first dose. Other supportive care (antiemetics, anti-diarrheal medications, or bone-stabilizing agents) were allowed as medically needed.
Staging CT/magnetic resonance imaging (MRI) scans were obtained at baseline and at 8-week intervals from the start of treatment until progression requiring treatment discontinuation. […] Subsequent scans were done at 8-week intervals after the confirmatory scan. Patients with evidence of clinical benefit were permitted to receive treatment following disease progression. Response was assessed by investigators using RECIST, version 1.1. Efficacy endpoints included objective response rate (ORR), time to response, duration of response (DOR), clinical benefit rate (CBR; defined as CR, PR, or stable disease ≥6 months), progression-free survival (PFS), and overall survival (OS).
The data cut-off date for this analysis was Sep. 1, 2018. ORR and CBR were calculated with 95% confidence intervals estimated by the Clopper-Pearson method (Clopper & Pearson, 1934, Biometrika 26:404-13). PFS, OS, and time-to-event endpoints were analyzed by the Kaplan-Meier method, with medians and corresponding 95% confidence intervals determined by the Brookmeyer and Crowley method with log-log transformation. Descriptive statistics were used to characterize AEs. Fischer's exact test was applied to a matrix of pathway-associated gene counts of mutated and wild type phenotypes between responders and non-responders to identify pathways enriched in either of the two response groups. P-values for single sample GSEA (ssGSEA) enrichment score differences between the responder and non-responder patient groups were obtained from the Mann-Whitney statistical test.

patients with mSCLC [2] = assay: Antibody responses to sacituzumab govitecan, the IgG antibody and SN-38 in serum (ELISA), mSCLC; type: in vivo, human; details: treatment up to 22 months, up to 63 doses
Experimental: Positivity required at least 10% of the tumor cells to be stained, with an intensity scored as 1+(weak), 2+(moderate), and 3+(strong). […] Assay sensitivity is 50 ng/mL for the ADC and the IgG, and 170 ng/mL for anti-SN-38 antibody.

patients with mSCLC [3] = details: in vivo
Experimental: Doses of 8 or 10 mg/kg were given on days 1 and 8 of a 21-day cycle, with contingencies to delay (maximum of 2 weeks). Toxicities were managed by supportive hematopoietic growth-factor therapy for blood cell reduction, dose delays and/or modification as specified in the protocol (e.g., 25% of prior dose), or by standard medical practice. Treatment was continued until disease progression, initiation of alternative anticancer therapy, unacceptable toxicity, or withdrawal of consent.
Safety evaluations were conducted during scheduled visits or more frequently if warranted.
Statistical Analyses—The data included in the analyses were derived from patients enrolled from November 2013 to June 2016, with follow-up through Jan. […] The frequency and severity of adverse events (AEs) were defined by MedDRA Preferred Term and System Organ Class (SOC) version 10, with severity assessed by NCI-CTCAE v4.03.

[4] = 10 mg/kg, N = 45, listed as Sacituzumab Govitecan

sacituzumab govitecan
ORR (objective response rate) ([1]; N = 45, 10 mg/kg): 31% and 31.1% | ORR (objective response rate) ([1]; N = 45, listed as Sacituzumab Govitecan, 10 mg/kg): 31.1% | ORR, prior CPI- and platinum-treated patients ([1]; 10 mg/kg, 4 of 15, 10 mg/kg): 27% and 26.7% | ORR, prior CPI-treated patients ([1]; 10 mg/kg, 4 of 17, 10 mg/kg): 24% and 23.5% | ORR, patients with liver metastases ([1]; 10 mg/kg, 5 of 15, 10 mg/kg): 33% and 33.3% | ORR, patients with any visceral involvement ([1]; 10 mg/kg, 9 of 33): 27.3% | Clinical benefit rate, No. of patients ([1]; 10 mg/kg, N = 45): 21 | Median OS ([1]; 10 mg/kg, N = 45): 16.3 months | Median PFS ([1]; 10 mg/kg, N = 45): 7.3 months | ORR, No. of patients ([1]; 10 mg/kg, N = 45): 14 | CR, % of patients ([1]; 10 mg/kg, N = 45, 10 mg/kg): (4.4) % | PD, % of patients ([1]; 10 mg/kg, N = 45, 10 mg/kg): (22.2) % | PR, % of patients ([1]; 10 mg/kg, N = 45, 10 mg/kg): (26.7) % | CR, % of patients [1, 4]: 4.4% | PD, % of patients [1, 4]: 22.2% | PR, % of patients [1, 4]: 26.7% | Median DOR (duration of response) ([1]; 10 mg/kg, responders n = 14): 12.9 months | Time to onset of response, median ([1]; 10 mg/kg, responders n = 14): 1.9 months | Time to onset of response, range ([1]; 10 mg/kg, responders n = 14): 1.7-7.4 months | Ongoing response of patients still on treatment at time of analysis ([1]; 3 patients, FIG. 1B): > 17 months and > 19 months and > 29 months | Responders with response duration of more than 12 months ([1]; 7 of 14 responders): 50% | Patients with a reduction of target lesions ([1]; 31 of 40 patients with post-baseline assessment): 77.5% | Immunogenicity: antibodies to sacituzumab govitecan, the hRS7 antibody, or SN-38 (patients with mSCLC [2]): not immunogenic; also recorded: No neutralizing antibodies | Anemia, grade 3 or 4 (patients with mSCLC [3]): 8% | Diarrhea, grade 3 or 4 (patients with mSCLC [3]): 9% | Fatigue, grade 3 or 4 (patients with mSCLC [3]): 13% | Hyponatremia, grade 3 or 4 (patients with mSCLC [3]): 8% | Increased alkaline phosphatase, grade 3 or 4 (patients with mSCLC [3]): 8% | Infusion-related reactions (patients with mSCLC [3]): No infusion-related reactions were reported | Neutropenia, grade 3 or 4 (patients with mSCLC [3]): 34% | Patients with dose reduction (patients with mSCLC [3]; 8 mg/kg): 13%
